In patent publication US11617748B2, “Meclozine derivatives and diclazuril derivatives for use in the prevention and/or the treatment of disorders associated to the inflammation induced by P. acnes” (priority 2016, dated 2023):

Experiments:
IL-1β production = test: P. acnes-induced IL-1β production in ThP-1 monocytes (ELISA); assay type: cell-based; conditions: Homo sapiens; ThP-1 cells pre-treated 24 h, then stimulated with P. acnes; read-out: IC50 of inhibition of IL-1β production
Method: Bacterial strain and conditions of growth. P. acnes strain 6919 was obtained from the American Type Culture Collection (Manassas, Va.) and P. acnes strains RON and PIE were isolated from patient with joint infection. All strains were grown under anaerobic conditions in reinforced clostridial liquid and solid medium (RCM) (Difco Laboratories, Detroit, Mich.). P. acnes was transferred from the bacterial stock onto RCM agar plate and incubated for 5 days under anaerobic condition by using a GasPak™ EZ Anaerobic Container System (Becton Dickinson & Co, Sparks Md., USA). A single colony was transferred into 100 ml RCM and grown as described above. Bacterial suspension was then store frozen at −80° C. in presence of 10% glycerol final. […]
ELISA. Human IL-1β, IL-8, hBD-2 and TNF-α protein concentration were measured in the supernatants of stimulated cells using various ELISA Sets (all from Ready-Set-Go from eBioscience, except hBD-2 measurements: Human DEFB4A/BD-2 ELISA Kit from LSBio) according to the manufacturer's instructions. […] The optical density was determined at 450 nm at a wavelength correction of 540 nm.
Both molecules, were tested to inhibit the production of IL-1β by the monocytic cell line. […] The production of IL-1β was measured on culture supernatant by ELISA and the viability of cells was estimated by MTT assay (FIG. 2).

TNF-α production = TNF-α production by the monocytic cell line; assay type: cell-based, human; conditions: data not shown
Method: (§1) ELISA. Human IL-1β, IL-8, hBD-2 and TNF-α protein concentration were measured in the supernatants of stimulated cells using various ELISA Sets (all from Ready-Set-Go from eBioscience, except hBD-2 measurements: Human DEFB4A/BD-2 ELISA Kit from LSBio) according to the manufacturer's instructions. We used serial dilutions of recombinant human IL-1β, IL-8, hBD-2 and TNF-α for standard curve. The optical density was determined at 450 nm at a wavelength correction of 540 nm.
Both molecules, were tested to inhibit the production of IL-1β by the monocytic cell line. ThP-1 cells were pretreated with diclazuril and meclozine, at the concentrations ranging from 0.39 to 50 μM, for 24 h and then stimulated with P. acnes suspension as described in Materials and Methods. The production of IL-1β was measured on culture supernatant by ELISA and the viability of cells was estimated by MTT assay (FIG. 2).

IL-8 production = test: PGN-induced IL-8 production in HaCaT keratinocytes (ELISA); assay type: cell-based, human; conditions: 6.25 μM, 24 h pre-treatment, PGN 5, 10, 20 μg/ml for 18 h
Method: as §1
Previously it has been shown that diclazuril and meclozine were able to inhibit IL-8 and IL-1β productions at the transcriptional and […] levels in pretreated cells stimulated with P. acnes. Here, it is investigated if the nature of the cell stimuli would have an impact on the diclazuril and meclozine effects on the IL-8 and IL-1β productions. Both, HaCaT and ThP-1 cell lines were pretreated with several concentrations of diclazuril and meclozine ranging from 0.39 to 25 μM for 24 h, and then stimulated with 3 different concentrations of peptidoglycanne (PGN) and lipoteicoic acid (LTA) at 5, 10 and 20 μg/ml for 18 h at 37° C. […] Pretreatment of keratinocytes with diclazuril decreased the production of IL-8 by an average of 65% at 6.25 μM regardless of the initial PGN dose used (FIG. 5A). Same results were obtained with meclozine and at 6.25 μM the IL-8 production was reduced by 60% (FIG. 5B).

SMILES | IC50 (IL-1β production) [µM] | inhibition of TNF-α production (TNF-α production) | decrease of PGN-induced IL-8 production (IL-8 production) [%]
Cc1cccc(CN2CCN(C(c3ccccc3)c3ccc(Cl)cc3)CC2)c1 (stereo not drawn) [meclozine, Meclozine] | ~6 | no effect | 60
N#CC(c1ccc(Cl)cc1)c1c(Cl)cc(-n2ncc(=O)[nH]c2=O)cc1Cl (stereo not drawn) [diclazuril, Diclazuril] | ~3 | no effect | 65
